BigSolDB 2.1

O=P(O)(CO)c1ccccc1
Conditions	solubility (mole fraction)
in 2-butanone, 288.15 K	0.0013
in 2-butanone, 293.16 K	0.0015
in 2-butanone, 298.17 K	0.0017
in 2-butanone, 303.18 K	0.0019
in 2-butanone, 308.14 K	0.0022
in 2-butanone, 313.16 K	0.0024
in 2-butanone, 318.17 K	0.0027
in 2-butanone, 323.16 K	0.0029
in 2-butanone, 328.17 K	0.0033
in 2-butanone, 333.16 K	0.0037
in 2-ethoxyethanol, 293.16 K	0.0461
in 2-ethoxyethanol, 298.17 K	0.0512
in 2-ethoxyethanol, 303.18 K	0.0571
in 2-ethoxyethanol, 308.14 K	0.0638
in 2-ethoxyethanol, 313.16 K	0.0709
in 2-ethoxyethanol, 318.17 K	0.0777
in 2-ethoxyethanol, 323.16 K	0.0849
in 2-ethoxyethanol, 328.16 K	0.0937
in 2-ethoxyethanol, 333.15 K	0.102
in acetone, 288.15 K	0.0013
in acetone, 293.16 K	0.0015
in acetone, 298.17 K	0.0017
in acetone, 303.18 K	0.002
in acetone, 308.14 K	0.0023
in acetone, 313.16 K	0.0026
in acetone, 318.17 K	0.003
in acetone, 323.16 K	0.0035
in benzene, 293.16 K	0.0009
in benzene, 298.17 K	0.0011
in benzene, 303.18 K	0.0013
in benzene, 308.14 K	0.0016
in benzene, 313.16 K	0.0019
in benzene, 318.17 K	0.0022
in benzene, 323.16 K	0.0027
in benzene, 328.16 K	0.0032
in benzene, 333.15 K	0.0037
in cyclohexane, 288.15 K	0.001
in cyclohexane, 293.16 K	0.0011
in cyclohexane, 298.17 K	0.0012
in cyclohexane, 303.18 K	0.0013
in cyclohexane, 308.14 K	0.0014
in cyclohexane, 313.16 K	0.0015
in cyclohexane, 318.17 K	0.0016
in cyclohexane, 323.16 K	0.0017
in cyclohexane, 328.17 K	0.0018
in cyclohexane, 333.16 K	0.0019
in dichloromethane, 293.16 K	0.00061
in dichloromethane, 296.17 K	0.00079
in dichloromethane, 301.13 K	0.00119
in dichloromethane, 303.14 K	0.00143
in dichloromethane, 305.15 K	0.00169
in diethyl ether, 293.16 K	0.00113
in diethyl ether, 296.17 K	0.00138
in diethyl ether, 301.13 K	0.00188
in diethyl ether, 303.14 K	0.00212
in diethyl ether, 305.15 K	0.00238
in toluene, 288.15 K	0.001
in toluene, 293.16 K	0.0011
in toluene, 298.17 K	0.0013
in toluene, 303.18 K	0.0015
in toluene, 308.14 K	0.0018
in toluene, 313.16 K	0.002
in toluene, 318.17 K	0.0023
in toluene, 323.16 K	0.0026
in toluene, 328.17 K	0.0029
in toluene, 333.16 K	0.0033
in water, 307.45 K	0.0099
in water, 317.46 K	0.0206
in water, 327.57 K	0.0424
in water, 338.15 K	0.0966
in water, 342.45 K	0.117
in water, 346.58 K	0.166
in water, 352.8 K	0.247
in water, 357.11 K	0.312
